According to patent publication US20240218330A1, “COMPOSITIONS FOR IMPROVING THE TRANSDUCTION OF CELLS BY VIRAL VECTORS” (Ospedale San Raffaele S.r.l., priority 2021, published 2024):

Tested on: unstimulated hHSPC
Assay: lentiviral vector (LV) transduction of unstimulated HSPC, % GFP+ cells by flow cytometry
Assay type: cell-based, human
Conditions: for LV transduction of unstimulated hHSPC vs DMSO control: FIG. 6D-E; for effect on transduction efficiency of quiescent HSPC: in presence of CsH, 4 h pre-exposure to single nucleoside or purine/pyrimidine mix, vs CsH only control, FIG. 3A-D
Procedure: Cyclosporine H (Sigma-Aldrich) was resuspended and stored following the manufacturer's instructions. Where indicated CsH was added to the transduction medium at 8 μM concentration and washed out with the vector 16-20 hours later. dNTPs (NEB N1201AA) were added to the transduction medium where indicated at 10 uM concentration and washed out with the vector 16-20 hours later. dA (D8668), dC (D0776), dG (D0901) and dT (T1895) were all purchased from Sigma-Aldrich and resuspended and stored following the manufacturer's instructions. dNs mix, single dNs or combinations of dNs (500-1000 μM each) were added to the culture media 4 h-2 h before transduction and washed out with the vector 16-20 hours later. For dosage experiment 25 μM to 1000 μM concentrations of each dN was tested.
All cells were transduced at the indicated multiplicity of infection (MOI) as calculated by titration of vector stocks on 293T cells and expressed as transducing units (TU)/293T cell. For transduction, CB-derived HSPC were cultured in serum-free StemSpan medium supplemented with penicillin (100 IU/ml), streptomycin ([…]), 100 ng/ml recombinant human stem cell factor (rhSCF), 20 ng/ml recombinant human thrombopoietin (rhTPO), 100 ng/ml recombinant human Flt3 ligand (rhFlt3), and 20 ng/ml recombinant human IL6 (rhIL6) (all from Peprotech) 16 to 24 hours prior to transduction. Bone marrow and G-CSF mobilized peripheral blood CD34+ cells were cultured in CellGro medium (Cell Genix) supplemented with penicillin (100 IU/ml), streptomycin ([…]) and a cocktail of cytokines: 60 ng/ml IL-3, 100 ng/ml TPO, 300 ng/ml SCF, and 300 ng/ml FLT-3L (all from Cell Peprotech). HSPC were then transduced at a concentration of 1×10^6 cells per milliliter with the vector for 16 hours at the indicated multiplicity of infection (MOI), expressed as transducing units (TU)/293T cell, in the same medium. After transduction cells were washed and maintained in serum-free medium supplemented with cytokines as above until the reading of the percentage of positive cells by FACS, after which they were maintained in IMDM supplemented with 10% FBS, 25 ng/ml rhSCF, 5 ng/ml rhIL6-3, 25 ng/ml rhFlt3 and 5 ng/ml rhTPO. Unstimulated HSPC were transduced freshly isolated in StemSpan or CellGro medium supplemented with penicillin (100 IU/ml), streptomycin ([…]) for 16-24 hours and then maintained in presence of human cytokines and […] of the reverse-transcriptase inhibitor 3TC (from SIGMA) to avoid subsequent transduction due to cytokines stimulation. Unstimulated murine Lin-HSPC were transduced freshly isolated in serum-free StemSpan medium (StemCell Technologies) containing penicillin, streptomycin and glutamine at a concentration of 1×10^6 cells/ml for 16-20 hours and then maintained in presence of a combination of murine cytokines (20 ng/ml IL-3, 100 ng/ml SCF, 100 ng/ml Flt-3L, 50 ng/ml TPO all from Peprotech). MDM were transduced 7-10 days after differentiation. Activated T lymphocytes were transduced at a concentration of 10^6 cells/ml, after 3 days of stimulation with Dynabeads human T-activator CD3/CD28. Total CD14^− PBMC were transduced fresh at a concentration of 10^6 cells/ml for measurement of transduction.
GFP expression in transduced cells was measured 3-5 days post-transduction. Adherent MDM were detached by Tripsin-EDTA, washed and resuspended in PBS containing 2% fetal bovine serum (FBS). Cells grown in suspension were washed and resuspended in PBS containing 2% FBS. To measure HSPC subpopulation composition cells were harvested and incubated with anti-human receptor blocking antibodies for 15 min at 4° C. and then stained for 20 min at 4° C. with anti-human CD34 (RRID:AB_10827793), CD133 (RRID:AB_244346), CD90 (RRID:AB_559869) antibodies. […]

[1] = 7.5 μM Orotic Acid or 1 mM UMP alone, similarly to dNs alone
[2] = 7.5 μM Orotic Acid or 1 mM UMP combined with 8 μM CsH

| SMILES | LV transduction of unstimulated hHSPC vs DMSO control [1] | LV transduction of unstimulated hHSPC vs DMSO control [2] | effect on transduction efficiency of quiescent HSPC |
| --- | --- | --- | --- |
| O=C(O)c1cc(=O)[nH]c(=O)[nH]1 [OA, orotic acid] | increase in LV transduction | further significantly increased | – |
| O=c1ccn([C@@H]2O[C@H](COP(=O)(O)O)[C@@H](O)[C@H]2O)c(=O)[nH]1 [UMP, uridine 5′-monophosphate] | increase in LV transduction | further significantly increased | – |
| Nc1ncnc2c1ncn2[C@H]1C[C@H](O)[C@@H](CO)O1 [dA, Deoxyadenosine] | – | – | did not observe any effect |
| Nc1ccn([C@H]2C[C@H](O)[C@@H](CO)O2)c(=O)n1 [dC, Deoxycytidine] | – | – | gene marking levels comparable to the combination of all dNs |
| Nc1nc2c(ncn2[C@H]2C[C@H](O)[C@@H](CO)O2)c(=O)[nH]1 [dG, Deoxyguanosine] | – | – | did not observe any effect |
